One data set concerns JAK1/3. Nature of the data set: IL-2 whole blood lymphocytes phospho-STAT5. It is filed as cell-based. The following applies: Lymphocyte, read-out: IL-2 whole blood lymphocytes phospho-STAT5 EC50. The procedure: (§1) The activity of Compound III and Compound I was assessed in a panel of cell-based assays. Compound III and Compound I are selective inhibitors of JAK1/3-dependent signaling. Data for a non-selective JAK inhibitor (Compound IV) is shown for reference. Mixed lymphocyte reactions (MLRs) were performed by incubating freshly prepared naive human peripheral blood lymphocytes from one donor with CD80+/CD86+ mature Dendritic Cells derived from a different donor for 5 days. The percentage of CD3+/CD71+ (anti-CD3-APC, Clone HIT3a, anti-CD 71-FITC, Clone M-A712; BD Biosciences, San Jose, Calif.) proliferating cells was assessed by fluorescence-activated cell sorting (FACS; BD Bioscience). Interleukin-2 (IL-2)-dependent human primary T cell proliferation was assessed using CellTiter-Glo® Luminescent Cell Viability Assay (Promega, Madison, Wis.). STAT phosphorylation induced by different cytokines in human primary T cells was measured by intracellular FACS analysis (anti-pY694-STAT5 AlexaFluor488, anti-pY701-STAT1 AlexaFluor488, and anti-pY693-STAT4 AlexaFluor488; BD Biosciences). […] Interferon-γ (IFN-γ) signaling was assessed in the U937 monocytic cell line by measuring ICAM-1 surface expression by FACS (ICAM-1-APC, BD Bioscience).

The next data set concerns JAK2. Nature of the data set: GM-CSF whole blood granulocytes phospho-STAT5. It is filed as cell-based. The conditions noted are these: read-out: GM-CSF whole blood granulocytes phospho-STAT5 EC50. The procedure:
as §1

A short description of data set [1]: Five-day heart allograft study: side effects (clinical chemistry). It is filed as in vivo, rat. The conditions noted are these: five days. As for the experimental part: Compound I and Compound III were provided by Rigel (South San Francisco, Calif.) and Tacrolimus was provided by Astellas (Munich, Germany). All drugs were administrated orally each in two different concentrations: Compound I LD (15 mg/kg BID; n=6) and HD (60 mg/kg BID; n=6); Compound III LD (5 mg/kg BID; n=6) and HD (20 mg/kg BID; n=6); Tac LD (1 mg/kg QD; n=6) and HD (4 mg/kg QD; n=6). Administration of all drugs was performed every day at the same time points. Tacrolimus was applied only once a day (QD) every 24 hours. During administration of Compound I (BID) and Compound III (BID) a 12 hour pause was kept in between each drug application.
Lew recipients of heterotopic BN heart transplants were randomly assigned to their group. Animals were either left untreated (groups 1 and 2; see Table 1,5-day study) or received their group specific medication (groups 3-8; see Table 1,5-day study) by oral application. An untreated syngeneic transplant group Lew-Lew was generated as control.
EDTA samples and sera were taken five days after transplantation for differential blood count, BUN, Creatinine, Cholesterol, HDL, LDL, Triglycerides, AST, and ALT, respectively. Analyses were performed by standard clinical chemistry procedures.

The structures appear in SMILES notation. Where two headings read alike, the source gives them in different places. Bounds are passed on as bounds.

As a reminder, the EC50 is the concentration that produces a half-maximal response.

As for `COc1cc(Nc2ncc(C)c(Nc3ccc4oc(=O)[nH]c4c3)n2)cc(C)c1F` [Compound I, 5-(2-(4-fluoro-3-methoxy-5-methylphenylamino)-5-methylpyrimidin-4-ylamino)benzo[d]oxazol-2(3H)-one], the EC50 came out at 416 ± 152 nM with JAK1/3 (whole blood, JAK1/3) and 32.7 ± 9.51 µM in the data set with JAK2 (whole blood, JAK2).
Consider `COc1cc(Nc2ncc(C)c(Nc3ccc4oc(=O)[nH]c4c3)n2)cc(C)c1C` [Compound III, 5-(2-(3-methoxy-4,5-dimethylphenylamino)-5-methylpyrimidin-4-ylamino)benzol[d]oxazol-2-(3H)-one], for which the EC50 was 887 ± 295 nM in the data set on JAK1/3 and over 50 µM in the data set on JAK2. Moreover, the “serum HDL, mean” value in data set [1] (HD (Compound I 60 mg/kg BID, Compound III 20 mg/kg BID, Tac 4 mg/kg QD), no medication mean 26.0) was 46.3 mg/dL. Further, the “serum LDL, mean” value in data set [1] (LD (Compound III 5 mg/kg BID, Tac 1 mg/kg QD)) worked out at 19.6 mg/dL.

Source of the values: patent US8637038B2, “Methods for inhibiting allograft rejection” (Rigel Pharmaceuticals, Inc., priority 2011, dated 2014).
